Test results reported in patent publication EP4703358A1, “BENZO SIX-MEMBERED HETEROCYCLIC GSPT1 PROTEIN DEGRADATION AGENT AND USE THEREOF” (China Pharmaceutical University, priority 2023, dated 2024).

Experiments:
Format in all cases: cell-based
U937 = test: Antiproliferative activity against tumor cells (CCK8), U937; conditions: Homo sapiens, U-937, 72 hours
Experimental: (§1) U937, MOLM-13, and MV4-11 cells (ATCC) in the logarithmic growth phase were separately diluted in a culture medium and plated onto 96-well plates at 5000 cells/well, and the plates were incubated in an incubator at 37 °C with 5% CO2 for 24 hours. 10 mM stock solutions of the compounds in DMSO were prepared and diluted with the culture medium to set 9 concentration gradients. Three replicate wells were set for each concentration. After compound addition, the plates were incubated in an incubator at 37 °C with 5% CO2 for 72 hours. The cell proliferation was assessed using the CCK8 method. The cell growth inhibition IC50 values of the compounds were determined using an enzyme labeling method. The IC50 values were calculated using GraphPad Prism 7 software.
(§2) The antiproliferative activity of the compounds against the tumor cells is shown in Table 3, where A represents IC50 < 1 nM, B represents 1 ≤ IC50 < 10 nM, C represents 10 nM ≤ IC50 < 100 nM, D represents 100 nM ≤ IC50 < 1000 nM, and E represents IC50 ≥ 1000 nM. Table 3. The antiproliferative activity of compounds against tumor cells

MV4-11 = test: Antiproliferative activity against tumor cells (CCK8), MV4-11; conditions: Homo sapiens, MV4-11 cells, 72 hours
Experimental: as §1, §2

GSPT1 protein = target: T1, GSPT1 protein (Homo sapiens, UniProt P15170+Q96SW2); test: Degradation of GSPT1 in KG-1 cells (Western blot); design: percent GSPT1 degradation: dose or concentration left out as unconfirmed; conditions: for percent GSPT1 degradation at 0.2 µM: KG-1 cells, compound concentration 200 nM, 4 hours
T1 construct: host or cells: KG-1 cells
T1 sequence (P15170 whole entry): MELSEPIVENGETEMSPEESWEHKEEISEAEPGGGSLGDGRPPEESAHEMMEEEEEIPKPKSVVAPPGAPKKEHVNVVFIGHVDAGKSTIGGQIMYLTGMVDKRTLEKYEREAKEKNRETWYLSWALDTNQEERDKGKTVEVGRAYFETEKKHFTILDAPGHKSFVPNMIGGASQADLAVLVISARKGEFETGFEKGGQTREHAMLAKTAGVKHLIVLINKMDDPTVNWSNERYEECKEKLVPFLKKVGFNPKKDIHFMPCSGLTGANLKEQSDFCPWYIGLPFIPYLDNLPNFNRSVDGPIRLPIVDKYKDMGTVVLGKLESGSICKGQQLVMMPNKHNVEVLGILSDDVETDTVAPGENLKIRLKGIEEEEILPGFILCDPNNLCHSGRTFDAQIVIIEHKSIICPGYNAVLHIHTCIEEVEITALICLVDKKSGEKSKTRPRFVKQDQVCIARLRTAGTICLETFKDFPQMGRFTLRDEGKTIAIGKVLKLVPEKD
T1 sequence (Q96SW2 whole entry): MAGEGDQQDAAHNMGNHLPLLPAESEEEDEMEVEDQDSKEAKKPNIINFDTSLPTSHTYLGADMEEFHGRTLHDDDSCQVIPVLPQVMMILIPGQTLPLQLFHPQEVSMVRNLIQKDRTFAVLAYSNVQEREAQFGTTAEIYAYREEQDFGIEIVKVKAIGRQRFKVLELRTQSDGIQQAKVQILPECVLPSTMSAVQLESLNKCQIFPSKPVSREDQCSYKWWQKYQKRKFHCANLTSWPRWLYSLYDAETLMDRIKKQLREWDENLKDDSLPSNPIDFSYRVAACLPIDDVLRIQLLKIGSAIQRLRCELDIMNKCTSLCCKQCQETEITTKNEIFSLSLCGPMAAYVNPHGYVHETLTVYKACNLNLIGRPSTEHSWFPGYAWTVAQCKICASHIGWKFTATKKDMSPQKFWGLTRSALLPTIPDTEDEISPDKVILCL
T1 sequence (Q16531 whole entry partner): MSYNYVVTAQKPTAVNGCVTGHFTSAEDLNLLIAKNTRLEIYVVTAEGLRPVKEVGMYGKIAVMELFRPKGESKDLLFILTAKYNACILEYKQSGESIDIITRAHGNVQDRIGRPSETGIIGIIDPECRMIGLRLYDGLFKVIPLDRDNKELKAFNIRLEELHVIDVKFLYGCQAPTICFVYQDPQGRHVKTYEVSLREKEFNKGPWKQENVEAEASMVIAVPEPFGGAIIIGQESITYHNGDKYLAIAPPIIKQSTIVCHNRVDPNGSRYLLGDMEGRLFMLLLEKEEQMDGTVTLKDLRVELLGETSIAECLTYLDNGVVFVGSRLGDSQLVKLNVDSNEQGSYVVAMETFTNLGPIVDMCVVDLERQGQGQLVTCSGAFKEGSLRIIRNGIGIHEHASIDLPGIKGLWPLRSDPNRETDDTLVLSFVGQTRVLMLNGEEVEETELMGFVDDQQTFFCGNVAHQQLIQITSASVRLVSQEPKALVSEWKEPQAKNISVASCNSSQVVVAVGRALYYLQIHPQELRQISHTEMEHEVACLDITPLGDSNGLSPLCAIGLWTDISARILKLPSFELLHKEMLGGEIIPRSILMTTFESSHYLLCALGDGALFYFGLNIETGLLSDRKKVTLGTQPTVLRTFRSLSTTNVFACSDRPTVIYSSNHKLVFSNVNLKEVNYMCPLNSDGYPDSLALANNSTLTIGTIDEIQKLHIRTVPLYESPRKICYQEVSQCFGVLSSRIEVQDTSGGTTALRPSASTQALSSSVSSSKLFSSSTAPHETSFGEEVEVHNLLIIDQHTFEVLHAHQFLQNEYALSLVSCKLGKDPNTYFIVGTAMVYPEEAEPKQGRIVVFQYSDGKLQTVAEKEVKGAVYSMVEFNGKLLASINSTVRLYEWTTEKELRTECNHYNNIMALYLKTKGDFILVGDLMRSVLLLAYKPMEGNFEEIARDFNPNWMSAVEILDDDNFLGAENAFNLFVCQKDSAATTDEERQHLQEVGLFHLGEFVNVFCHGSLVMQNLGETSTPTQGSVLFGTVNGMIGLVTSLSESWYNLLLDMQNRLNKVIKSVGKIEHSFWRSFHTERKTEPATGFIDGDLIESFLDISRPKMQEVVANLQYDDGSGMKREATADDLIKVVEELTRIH
Experimental: KG-1 cells (ATCC) were grown in an IMDM culture medium (containing 20% FBS). After centrifugation and counting, the cell concentration was adjusted. The cells were plated onto 6-well plates at 10^6 cells/well, with 1350 µL per well. 150 µL of DMSO and the test compounds of the present disclosure (compound concentration: 200 nM) were added. The plates were incubated in an incubator at 37 °C with 5% CO2 for 4 hours. The cells were centrifuged, and the culture medium was discarded. PBS was added to wash the cells and then discarded. Whole cell lysates were prepared using a protease inhibitor cocktail (100×, Fude Biological), a protein phosphatase inhibitor cocktail (100×, Fude Biological), SuperNuclease (Beyotime), and a high-intensity RIPA lysis buffer (Thermo Fisher) and placed on ice for 30 minutes. After centrifugation, the cell debris precipitates were discarded, and the whole cell lysate supernatants were collected and transferred to new centrifuge tubes. After a BCA protein assay, samples were prepared using a 5× loading buffer (Thermo Fisher). The samples were subjected to protein electrophoresis separation in a 4-20% precast gel (SDS-PAGE gel), transferred to a PVDF membrane, then blocked with 5% NFDM/TBST at room temperature for 1 hour, incubated overnight with primary antibodies at 4 °C, and incubated with a secondary antibody at room temperature for 2 hours the next day. Signals were detected using a MINICHEMITM imaging system.
Primary antibodies: • Anti-GSPT1: Abcam ab234433 • Anti-beta actin: Fude Biological FD0060
Secondary antibody: Anti-rabbit peroxidase-linked secondary antibody: Fude Biological FDG007
The degradation effects of the compounds on GSPT1 protein are shown in Table 1, where A represents a GSPT1 protein degradation percentage of no less than 80%, B represents a degradation percentage of less than 80% but no less than 50%, C represents a degradation percentage of less than 50% but no less than 25%, and D represents a degradation percentage of less than 25%. Table 1. The degradation of GSPT1 protein by compounds

MOLM-13 = test: Antiproliferative activity against tumor cells (CCK8), MOLM-13; conditions: Homo sapiens, MOLM-13 cells, 72 hours
Experimental: as §1, §2

KG-1 cells = test: Antiproliferative activity against KG-1 cells (CCK8); conditions: Homo sapiens, 72 hours
Experimental: KG-1 cells in the logarithmic growth phase were diluted in a culture medium (RPMI + 10% FBS) and plated onto 96-well plates at 5000 cells/well, and the plates were incubated in an incubator at 37 °C with 5% CO2 for 24 hours. 10 mM stock solutions of the test compounds of the present disclosure in DMSO were prepared and diluted with the culture medium to set 9 concentration gradients. Three replicate wells were set for each concentration. After compound addition, the plates were incubated in an incubator at 37 °C with 5% CO2 for 72 hours. The cell proliferation was assessed using the CCK8 method. The cell growth inhibition IC50 values of the compounds were determined using an enzyme labeling method. The IC50 values were calculated using GraphPad Prism 7 software.
as §2, with “KG-1” for “the tumor”, “2,” for “3,”, “2.” for “3.”, “KG-1” for “tumor”

Compound | IC50 (U937) [nM] | IC50 (MV4-11) [nM] | percent GSPT1 degradation at 0.2 µM (GSPT1 protein) [%] | IC50 (MOLM-13) [nM] | IC50 (KG-1 cells) [nM] | percent GSPT1 degradation (GSPT1 protein; KG-1, 4 h, read-out: GSPT1 degradation) [%]
O=C1CCC(N2Cc3cc(CNC(=O)C4=Cc5c(F)cccc5OC4)ccc3C2=O)C(=O)N1 (stereo not shown) [Compound A-2, N-((2-(2,6-Dioxopiperidin-3-yl)-1-oxoisoindolin-5-yl)methyl)-5-fluoro-2H-chromene-3-carboxamide] | – | – | > 80 | – | 10 to 100 | –
COc1cccc2c1C=C(C(=O)NCc1ccc3c(c1)CN(C1CCC(=O)NC1=O)C3=O)CO2 (stereo not shown) [Compound A-9, N-((2-(2,6-Dioxopiperidin-3-yl)-1-oxoisoindolin-5-yl)methyl)-5-methoxy-2H-chromene-3-carboxamide] | – | – | > 80 | – | 1 to 10 | –
O=C1CCC(N2Cc3cc(CNC(=O)C4=Cc5cc(F)c(F)cc5OC4)ccc3C2=O)C(=O)N1 (stereo not shown) [Compound A-35, N-((2-(2,6-Dioxopiperidin-3-yl)-1-oxoisoindolin-5-yl)methyl)-6,7-difluoro-2H-chromene-3-carboxamide] | – | – | – | – | 10 to 100 | > 80
N#Cc1ccc2c(c1)C=C(C(=O)NCc1ccc3c(c1)CN(C1CCC(=O)NC1=O)C3=O)CO2 (stereo not shown) [Compound A-11, N-((2-(2,6-Dioxopiperidin-3-yl)-1-oxoisoindolin-5-yl)methyl)-6-cyano-2H-chromene-3-carboxamide] | – | – | > 80 | – | 10 to 100 | –
C#Cc1ccc2c(c1)C=C(C(=O)NCc1ccc3c(c1)CN(C1CCC(=O)NC1=O)C3=O)CO2 (stereo not shown) [Compound A-15, N-((2-(2,6-Dioxopiperidin-3-yl)-1-oxoisoindolin-5-yl)methyl)-6-ethynyl-2H-chromene-3-carboxamide] | – | – | 50 to 80 | – | 100 to 1000 | –
C=Cc1ccc2c(c1)C=C(C(=O)NCc1ccc3c(c1)CN(C1CCC(=O)NC1=O)C3=O)CO2 (stereo not shown) [Compound A-14, N-((2-(2,6-Dioxopiperidin-3-yl)-1-oxoisoindolin-5-yl)methyl)-6-vinyl-2H-chromene-3-carboxamide] | – | – | 50 to 80 | – | 10 to 100 | –
COc1cccc2c1OCC(C(=O)NCc1ccc3c(c1)CN(C1CCC(=O)NC1=O)C3=O)=C2 (stereo not shown) [Compound A-20, N-((2-(2,6-Dioxopiperidin-3-yl)-1-oxoisoindolin-5-yl)methyl)-8-methoxy-2H-chromene-3-carboxamide] | – | – | > 80 | – | 1 to 10 | –
CN(C)c1ccc2c(c1)C=C(C(=O)NCc1ccc3c(c1)CN(C1CCC(=O)NC1=O)C3=O)CO2 (stereo not shown) [Compound A-13, N-((2-(2,6-Dioxopiperidin-3-yl)-1-oxoisoindolin-5-yl)methyl)-6-(dimethylamino)-2H-chromene-3-carboxamide] | – | – | 50 to 80 | – | 10 to 100 | –
Cc1ccc2c(c1)C=C(C(=O)NCc1ccc3c(c1)CN(C1CCC(=O)NC1=O)C3=O)CO2 (stereo not shown) [Compound A-7, N-((2-(2,6-Dioxopiperidin-3-yl)-1-oxoisoindolin-5-yl)methyl)-6-methyl-2H-chromene-3-carboxamide] | – | – | > 80 | – | 1 to 10 | –
CC(C)(C)c1ccc2c(c1)C=C(C(=O)NCc1ccc3c(c1)CN(C1CCC(=O)NC1=O)C3=O)CO2 (stereo not shown) [Compound A-16, N-((2-(2,6-Dioxopiperidin-3-yl)-1-oxoisoindolin-5-yl)methyl)-6-tert-butyl-2H-chromene-3-carboxamide] | – | – | 50 to 80 | – | 10 to 100 | –

Second part, led by results:

IC50 (U937) [nM] | IC50 (MV4-11) [nM] | percent GSPT1 degradation at 0.2 µM (GSPT1 protein) [%] | IC50 (MOLM-13) [nM] | Compound | IC50 (KG-1 cells) [nM] | percent GSPT1 degradation (GSPT1 protein; KG-1, 4 h, read-out: GSPT1 degradation) [%]
1 to 10 | < 1 | > 80 | 1 to 10 | O=C1CCC(N2Cc3cc(CNC(=O)C4COc5ccc(OC(F)(F)F)cc5C4)ccc3C2=O)C(=O)N1 (stereo not shown) [Compound B-4, N-((2-(2,6-Dioxopiperidin-3-yl)-1-oxoisoindolin-5-yl)methyl)-6-(trifluoromethoxy)chromane-3-carboxamide] | < 1 | –
≥ 1000 | ≥ 1000 | < 25 | ≥ 1000 | O=C1CCC(N2Cc3cc(CNC(=O)C4CCc5ccccc5C4)ccc3C2=O)C(=O)N1 [Compound D-1, N-((2-(2,6-Dioxopiperidin-3-yl)-1-oxoisoindolin-5-yl)methyl)-1,2,3,4-tetrahydronaphthalene-2-carboxamide] | ≥ 1000 | –
10 to 100 | 10 to 100 | > 80 | 10 to 100 | O=C1CCC(N2Cc3cc(CNC(=O)C4CNc5ccccc5C4)ccc3C2=O)C(=O)N1 (stereo not shown) [Compound C-1, N-((2-(2,6-Dioxopiperidin-3-yl)-1-oxoisoindolin-5-yl)methyl)-1,2,3,4-tetrahydroquinoline-3-carboxamide] | 1 to 10 | –
– | – | > 80 | – | Cc1ccc(C)c2c1C=C(C(=O)NCc1ccc3c(c1)CN(C1CCC(=O)NC1=O)C3=O)CO2 (stereo not shown) [Compound A-38, N-((2-(2,6-Dioxopiperidin-3-yl)-1-oxoisoindolin-5-yl)methyl)-5,8-dimethyl-2H-chromene-3-carboxamide] | 10 to 100 | –
– | – | > 80 | – | Cc1cc(F)cc2c1OCC(C(=O)NCc1ccc3c(c1)CN(C1CCC(=O)NC1=O)C3=O)=C2 (stereo not shown) [Compound A-31, N-((2-(2,6-Dioxopiperidin-3-yl)-1-oxoisoindolin-5-yl)methyl)-6-fluoro-8-methyl-2H-chromene-3-carboxamide] | 1 to 10 | –
– | – | > 80 | – | O=C1CCC(N2Cc3cc(CNC(=O)C4=Cc5c(F)cc(F)cc5OC4)ccc3C2=O)C(=O)N1 (stereo not shown) [Compound A-34, N-((2-(2,6-Dioxopiperidin-3-yl)-1-oxoisoindolin-5-yl)methyl)-5,7-difluoro-2H-chromene-3-carboxamide] | 1 to 10 | –
– | – | > 80 | – | Cc1cc2c(cc1F)OCC(C(=O)NCc1ccc3c(c1)CN(C1CCC(=O)NC1=O)C3=O)=C2 (stereo not shown) [Compound A-30, N-((2-(2,6-Dioxopiperidin-3-yl)-1-oxoisoindolin-5-yl)methyl)-7-fluoro-6-methyl-2H-chromene-3-carboxamide] | 10 to 100 | –
– | – | > 80 | – | O=C1CCC(N2Cc3cc(CNC(=O)C4=Cc5cc(F)cc(F)c5OC4)ccc3C2=O)C(=O)N1 (stereo not shown) [Compound A-33, N-((2-(2,6-Dioxopiperidin-3-yl)-1-oxoisoindolin-5-yl)methyl)-6,8-difluoro-2H-chromene-3-carboxamide] | 1 to 10 | –
– | – | < 25 | – | O=C1CCC(N2Cc3cc(CNC(=O)C4=Cc5cc(NC(=O)C6CCC6)ccc5OC4)ccc3C2=O)C(=O)N1 (stereo not shown) [Compound A-27, N-((2-(2,6-Dioxopiperidin-3-yl)-1-oxoisoindolin-5-yl)methyl)-6-(cyclobutanecarboxamido)-2H-chromene-3-carboxamide] | 100 to 1000 | –
– | – | 50 to 80 | – | O=C1CCC(N2Cc3c(CNC(=O)C4=Cc5cc(OC(F)(F)F)ccc5OC4)cccc3C2=O)C(=O)N1 (stereo not shown) [Compound A-41, N-((2-(2,6-Dioxopiperidin-3-yl)-1-oxoisoindolin-4-yl)methyl)-6-(trifluoromethoxy)-2H-chromene-3-carboxamide] | 10 to 100 | –
